{
  "source": "patent US11505543B2",
  "about": "“4-oxo-3,4-dihydroquinazoline compounds as inhibitors of human immunodeficiency virus replication” (VIIV HEALTHCARE UK (NO.5) LIMITED, priority 2018, dated 2022)",
  "key": {"[1]": {"test_system": "recombinant NL4-3 virus (nef section replaced with Renilla luciferase gene) in MT-2 cells", "assay": "HIV cell culture assay (antiviral activity, luciferase readout)", "assay_type": "cell-based", "settings": "serial dilutions of compound", "method_in_brief": "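Test compound in serial dilution was present while MT-2 cells were infected for 4–5 days with recombinant NL4-3 virus made in 293T cells. Antiviral activity was quantified as Renilla luciferase activity, read with a live-cell substrate. EC50 came from the median-effect equation.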"}, "[2]": {"assay": "Compound cytotoxicity, XTT-based colorimetric assay", "assay_type": "cell-based", "settings": "human, uninfected MT2 cells, day 4, XTT", "method_in_brief": "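Run under the antiviral-assay protocol but without virus. Viability was read on day 4 and CC50 values were derived from the readout.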"}, "[3]": {"settings": "Renilla, NL43, MT-2 cells infected for 4-5 days with recombinant NL4-3 Renilla luciferase virus"}},
  "data": [
    {"smiles": "CS(=O)(=O)Nc1nn(CC(F)F)c2c(-n3c([C@H](Cc4cc(F)cc(F)c4)NC(=O)Cn4nc(C(F)F)c5c4C(F)(F)[C@@H]4C[C@H]54)nc4cc(-c5ccccc5S(C)(=O)=O)ccc4c3=O)ccc(Cl)c12", "note": "[Example 176, N-((S)-1-(3-(4-chloro-1-(2,2-difluoroethyl)-3-(methylsulfonamido)-1H-indazol-7-yl)-7-(2-(methylsulfonyl)phenyl)-4-oxo-3,4-dihydroquinazolin-2-yl)-2-(3,5-difluorophenyl)ethyl)-2-((3bS,4aR)-3-(difluoromethyl)-5,5-difluoro-3b,4,4a,5-tetrahydro-1H-cyclopropa[3,4]cyclopenta[1,2-c]pyrazol-1-yl)acetamide]", "values": [
      {"measurement": "EC50", "setting": "[1]; [3]", "result": 0.066, "unit": "nM"},
      {"measurement": "CC50 at 4 day", "setting": "[2]", "result": "> 500", "unit": "nM"}
    ]},
    {"smiles": "Cn1nc(NS(C)(=O)=O)c2c(Cl)ccc(-n3c([C@H](Cc4cc(F)cc(F)c4)NC(=O)Cn4nc(C(F)F)c5c4C(F)(F)[C@@H]4C[C@H]54)nc4cc(-c5cccc(F)c5CO)ccc4c3=O)c21", "note": "(atropisomer, axis not shown; (aR)) [Example 44, N-((S)-1-(3-(4-chloro-1-methyl-3-(methylsulfonamido)-1H-indazol-7-yl)-7-(3-fluoro-2-(hydroxymethyl)phenyl)-4-oxo-3,4-dihydroquinazolin-2-yl)-2-(3,5-difluorophenyl)ethyl)-2-((3bS,4aR)-3-(difluoromethyl)-5,5-difluoro-3b,4,4a,5-tetrahydro-1H-cyclopropa[3,4]cyclopenta[1,2-c]pyrazol-1-yl)acetamide]", "values": [
      {"measurement": "EC50", "setting": "[1]; [3]", "result": 0.12, "unit": "nM"},
      {"measurement": "CC50 at 4 day", "setting": "[2]", "result": "> 1000", "unit": "nM"}
    ]},
    {"smiles": "Cn1nc(NS(C)(=O)=O)c2c(Cl)ccc(-n3c([C@H](Cc4cc(F)cc(F)c4)NC(=O)Cn4ccc(C5CC5)n4)nc4cc(-c5ccccc5F)ccc4c3=O)c21", "note": "(single isomer, unassigned) [Example 3]", "values": [
      {"measurement": "EC50", "setting": "[1]; MT-2 cells infected for 4-5 days with recombinant NL4-3 Renilla luciferase virus", "result": 63.1, "unit": "nM"},
      {"measurement": "CC50 at 4 day", "setting": "[2]", "result": "> 1000", "unit": "nM"}
    ]},
    {"smiles": "Cc1cc(C)nc(-c2ccc3c(=O)n(-c4ccc(Cl)c5c(NS(C)(=O)=O)nn(CC(F)F)c45)c([C@H](Cc4cc(F)cc(F)c4)NC(=O)Cn4nc(C(F)F)c5c4C(F)(F)[C@@H]4C[C@H]54)nc3c2)n1", "note": "(atropisomer, axis not shown; (aR)) [Example 128, N-((S)-1-(3-(4-chloro-1-(2,2-difluoroethyl)-3-(methylsulfonamido)-1H-indazol-7-yl)-7-(4,6-dimethylpyrimidin-2-yl)-4-oxo-3,4-dihydroquinazolin-2-yl)-2-(3,5-difluorophenyl)ethyl)-2-((3bS,4aR)-3-(difluoromethyl)-5,5-difluoro-3b,4,4a,5-tetrahydro-1H-cyclopropa[3,4]cyclopenta[1,2-c]pyrazol-1-yl)acetamide]", "values": [
      {"measurement": "EC50", "setting": "[1]; [3]", "result": 0.069, "unit": "nM"},
      {"measurement": "CC50 at 4 day", "setting": "[2]", "result": "> 500", "unit": "nM"}
    ]},
    {"smiles": "CNC(=O)c1ccc(-c2ccc3c(=O)n(-c4ccc(Cl)c5c(NS(C)(=O)=O)nn(C)c45)c([C@H](Cc4cc(F)cc(F)c4)NC(=O)Cn4nc(C(F)F)c5c4C(F)(F)[C@@H]4C[C@H]54)nc3c2)cc1", "note": "(atropisomer, axis not shown; (aR)) [Example 62, 4-(3-(4-chloro-1-methyl-3-(methylsulfonamido)-1H-indazol-7-yl)-2-((S)-1-(2-((3bS,4aR)-3-(difluoromethyl)-5,5-difluoro-3b,4,4a,5-tetrahydro-1H-cyclopropa[3,4]cyclopenta[1,2-c]pyrazol-1-yl)acetamido)-2-(3,5-difluorophenyl)ethyl)-4-oxo-3,4-dihydroquinazolin-7-yl)-N-methylbenzamide]", "values": [
      {"measurement": "EC50", "setting": "[1]; [3]", "result": 0.48, "unit": "nM"},
      {"measurement": "CC50 at 4 day", "setting": "[2]", "result": "> 1000", "unit": "nM"}
    ]},
    {"smiles": "Cc1ccccc1-c1ccc2c(=O)n(-c3ccc(S(=O)(=O)N4CCOCC4)cc3)c([C@H](Cc3cc(F)cc(F)c3)NC(=O)Cn3ccc(C4CC4)n3)nc2c1", "note": "[Example 143, (S)-2-(3-cyclopropyl-1H-pyrazol-1-yl)-N-(2-(3,5-difluorophenyl)-1-(3-(4-(morpholinosulfonyl)phenyl)-4-oxo-7-(o-tolyl)-3,4-dihydroquinazolin-2-yl)ethyl)acetamide]", "values": [
      {"measurement": "EC50", "setting": "[1]; [3]", "result": 42, "unit": "nM"},
      {"measurement": "CC50 at 4 day", "setting": "[2]", "result": "> 1000", "unit": "nM"}
    ]},
    {"smiles": "Cn1nc(NS(C)(=O)=O)c2c(Cl)ccc(-n3c([C@H](Cc4cc(F)cc(F)c4)NC(=O)Cn4nc(C(F)F)c5c4C(F)(F)[C@@H]4C[C@H]54)nc4cc(-c5ccc(C(C)(C)C)cc5)ccc4c3=O)c21", "note": "[Example 192, N-((S)-1-(7-(4-(tert-butyl)phenyl)-3-(4-chloro-1-methyl-3-(methylsulfonamido)-1H-indazol-7-yl)-4-oxo-3,4-dihydroquinazolin-2-yl)-2-(3,5-difluorophenyl)ethyl)-2-((3bS,4aR)-3-(difluoromethyl)-5,5-difluoro-3b,4,4a,5-tetrahydro-1H-cyclopropa[3,4]cyclopenta[1,2-c]pyrazol-1-yl)acetamide]", "values": [
      {"measurement": "EC50", "setting": "[1]; [3]", "result": 5.1, "unit": "nM"},
      {"measurement": "CC50 at 4 day", "setting": "[2]", "result": "> 1000", "unit": "nM"}
    ]},
    {"smiles": "Cn1nc(NS(C)(=O)=O)c2c(Cl)ccc(-n3c([C@H](Cc4cc(F)cc(F)c4)NC(=O)Cn4nc(C(F)F)c5c4C(F)(F)[C@@H]4C[C@H]54)nc4cc(-c5ccc(F)cc5)ccc4c3=O)c21", "note": "[Example 193, N-((S)-1-(3-(4-chloro-1-methyl-3-(methylsulfonamido)-1H-indazol-7-yl)-7-(4-fluorophenyl)-4-oxo-3,4-dihydroquinazolin-2-yl)-2-(3,5-difluorophenyl)ethyl)-2-((3bS,4aR)-3-(difluoromethyl)-5,5-difluoro-3b,4,4a,5-tetrahydro-1H-cyclopropa[3,4]cyclopenta[1,2-c]pyrazol-1-yl)acetamide]", "values": [
      {"measurement": "EC50", "setting": "[1]; [3]", "result": 0.95, "unit": "nM"},
      {"measurement": "CC50 at 4 day", "setting": "[2]", "result": "> 1000", "unit": "nM"}
    ]},
    {"smiles": "Cn1nc(NS(C)(=O)=O)c2c(Cl)ccc(-n3c([C@H](Cc4cc(F)cc(F)c4)NC(=O)Cn4nc(C(F)F)c5c4C(F)(F)[C@@H]4C[C@H]54)nc4cc(-c5ccncc5)ccc4c3=O)c21", "note": "(atropisomer, axis not shown; (aR)) [Example 118, N-((S)-1-(3-(4-chloro-1-methyl-3-(methylsulfonamido)-1H-indazol-7-yl)-4-oxo-7-(pyridin-4-yl)-3,4-dihydroquinazolin-2-yl)-2-(3,5-difluorophenyl)ethyl)-2-((3bS,4aR)-3-(difluoromethyl)-5,5-difluoro-3b,4,4a,5-tetrahydro-1H-cyclopropa[3,4]cyclopenta[1,2-c]pyrazol-1-yl)acetamide]", "values": [
      {"measurement": "EC50", "setting": "[1]; [3]", "result": 0.16, "unit": "nM"},
      {"measurement": "CC50 at 4 day", "setting": "[2]", "result": "> 500", "unit": "nM"}
    ]},
    {"smiles": "Cc1nccnc1-c1ccc2c(=O)n(-c3ccc(Cl)c4c(NS(=O)(=O)C5CC5)nn(CC(F)F)c34)c([C@H](Cc3cc(F)cc(F)c3)NC(=O)Cn3nc(C(F)F)cc3C(F)F)nc2c1", "note": "[Example 191, (S)-2-(3,5-bis(difluoromethyl)-1H-pyrazol-1-yl)-N-(1-(3-(4-chloro-3-(cyclopropanesulfonamido)-1-(2,2-difluoroethyl)-1H-indazol-7-yl)-7-(3-methylpyrazin-2-yl)-4-oxo-3,4-dihydroquinazolin-2-yl)-2-(3,5-difluorophenyl)ethyl)acetamide]", "values": [
      {"measurement": "EC50", "setting": "[1]; [3]", "result": 1.5, "unit": "nM"},
      {"measurement": "CC50 at 4 day", "setting": "[2]", "result": "> 500", "unit": "nM"}
    ]},
    {"smiles": "CS(=O)(=O)Nc1nn(CC(F)F)c2c(-n3c([C@H](Cc4cc(F)cc(F)c4)NC(=O)Cn4nc(C(F)F)c5c4C(F)(F)[C@@H]4C[C@H]54)nc4cc(-c5ncccn5)ccc4c3=O)ccc(Cl)c12", "note": "(atropisomer, axis not shown; (aR)) [Example 124, N-((S)-1-(3-(4-chloro-1-(2,2-difluoroethyl)-3-(methylsulfonamido)-1H-indazol-7-yl)-4-oxo-7-(pyrimidin-2-yl)-3,4-dihydroquinazolin-2-yl)-2-(3,5-difluorophenyl)ethyl)-2-((3bS,4aR)-3-(difluoromethyl)-5,5-difluoro-3b,4,4a,5-tetrahydro-1H-cyclopropa[3,4]cyclopenta[1,2-c]pyrazol-1-yl)acetamide]", "values": [
      {"measurement": "EC50", "setting": "[1]; [3]", "result": 0.058, "unit": "nM"},
      {"measurement": "CC50 at 4 day", "setting": "[2]", "result": "> 500", "unit": "nM"}
    ]}
  ]
}
